Experiments:
[1] = molecular target: O-acetylserine sulfhydrylase (Mycobacterium tuberculosis) (UniProt P9WP55); conditions: at 500 nM
Description: Inhibition of Mycobacterium tuberculosis N-terminal His-6-tagged recombinant CysK1 expressed in Escherichia coli BL21 (DE3) at 500 nM after 20 mins by spectrophotometric analysis

[2] = molecular target: O-acetylserine sulfhydrylase (Mycobacterium tuberculosis) (UniProt P9WP55)
[3] = molecular target: T1, O-acetylserine sulfhydrylase (Mycobacterium tuberculosis, UniProt P9WP55)
Description: Inhibition of Mycobacterium tuberculosis N-terminal His-6-tagged recombinant CysK1 expressed in Escherichia coli BL21 (DE3) after 20 mins by spectrophotometric analysis

[4] = Lipophilicity, log P of the compound; format: physicochemical; conditions: octanol/water
[5] = molecular target: O-acetylserine sulfhydrylase (Mycobacterium tuberculosis) (UniProt P9WP55); remark: listed apart in the source
[6] = molecular target: T1, O-acetylserine sulfhydrylase; assay: Inhibition of Mycobacterium tuberculosis CysK1

SMILES	inhibition [1] [%]	Ratio IC50 [2]	IC50 [3] [nM]	logP [4]	Ratio IC50 [5]	IC50 [6] [nM]
CN1C(=O)/C(=C/c2ccc(F)cc2)S/C1=N\c1cccc(C(=O)O)c1	89.5	150	19	2.7	5	
CN1C(=O)/C(=C/c2ccccc2OCC(=O)O)S/C1=N\c1cccc(C(=O)O)c1						103
CC[C@H](C)[C@H](NC(=O)[C@H](CO)NC(=O)[C@H](Cc1ccccc1)NC(=O)[C@@H](N)CC(=O)O)C(=O)O						2900
CN1C(=O)/C(=C/c2ccc(O)cc2)S/C1=N\c1cccc(C(=O)O)c1	92.6		62.6			
COc1ccc(/C=C2\S/C(=N\c3cccc(C(=O)O)c3)N(C)C2=O)cc1OC	89.7		54.3			
CN1C(=O)/C(=C/c2ccc(N(C)C)cc2)S/C1=N\c1cccc(C(=O)O)c1	93.4		37			
COc1cc(/C=C2\S/C(=N\c3cccc(C(=O)O)c3)N(C)C2=O)ccc1O	87.5		60			
CN1C(=O)/C(=C/c2ccc(OCc3ccccc3)cc2)S/C1=N\c1cccc(C(=O)O)c1	91.5		25.6			

Reference: ChEMBL document CHEMBL2417551, “Structure-guided design of novel thiazolidine inhibitors of O-acetyl serine sulfhydrylase from Mycobacterium tuberculosis” (J Med Chem, 2013)
